Laboratory results: patent EP2165709B1, “Pharmaceutical compositions comprising a lysine based compound and an HIV antiviral or antiretroviral agent” (Ambrilia Biopharma Inc., priority 2004, dated 2006)
Where two headings read alike, the source gives them in different places.

Assays:
[1] = Bioavailability: plasma concentration after oral administration to rats; assay type: in vivo, male Sprague-Dawley rats; settings: rat; for Cmax / Tmax: male, Sprague-Dawley, plasma, vehicle Mix; for Cmax / Tmax / AUC / delivery of PL-100 and PL-337 compared to non-aqueous formulations of PL-100 and PL-337: 50 mg/Kg po; for delivery of PL-100 and PL-337 compared to non-aqueous formulations of PL-100 and PL-337: aqueous dosing; for administered compound detected in the blood samples: po, delivered as aqueous solutions, suggests rapid metabolism to parent drugs
Experimental: To assess the extent of in vivo cleavage of the phosphate group from the putative compounds, PL-100, PL-462 (based on PL-100), PL-337 and PL-515 (based on PL-337) compounds were administered po (50 mg/kg) to male Sprague-Dawley rats and their plasma concentration measured at different time intervals post-administration. All test articles (PL-100, PL-462, PL-337 and PL-515) were prepared in different vehicle at the final concentration of 25 mg/mL. The vehicle composition is as follows: (1) 20% ethanol; 50% propylene glycol; 0.05% w/v Tween 20 and water (Mix); (2) PBS buffer (PBS). Test articles were administered to male Sprague-Dawley rats at a single oral dose of 50 mg/kg. Each article was tested in three rats. Blood samples (0.2-0.3 mL) were collected at the post-dose time of 10, 20, 40, 60,120, 180 and 360 minutes. The harvested blood was centrifuged to isolate plasma. The resulting plasma was separated and stored at -70°C. Plasma samples together with standards and quality control samples were treated to precipitate proteins, then analyzed by HPLC-MS, for the presence of PL-462, PL-100, PL-515 and PL-337.

[2] = Partition coefficient (LogP), octanol / phosphate buffer pH 7.4; assay type: physicochemical; settings: octanol and phosphate buffer pH 7.4 (0.04 M KHPO4), LC-MS detection
Text: The concentration of the compounds in the phases was detected by LC-MS.

[3] = vehicle Mix (20% ethanol; 50% propylene glycol; 0.05% w/v Tween 20 and water)
[4] = vehicle PBS, parent drug (PL-100 or PL-337) detected in plasma

Row | SMILES | Cmax [1] | Tmax [1] | AUC [1, 3] | logP ([2]; read-out: LogP) | delivery of PL-100 and PL-337 compared to non-aqueous formulations of PL-100 and PL-337 [1] | administered compound detected in the blood samples [1] | logP [2] | AUC [1, 4]
1 | COC(=O)N[C@H](C(=O)NCCCC[C@@H](CO)N(CC(C)C)S(=O)(=O)c1ccc(N)c(F)c1)C(c1ccccc1)c1ccccc1 [PL-337, (1-{5-[(4-amino-3-fluoro-benzenesulfonyl)-isobutyl-amino]-6-hydroxy-hexylcarbamoyl}-2,2-diphenyl-ethyl)-carbamic acid methyl ester] | 681 ± 131 nM | 60 min | 1.180 ± 0.196 µg/hr*ml |  |  |  |  | 
2 | COC(=O)N[C@H](C(=O)NCCCC[C@@H](COP(=O)(O)O)N(CC(C)C)S(=O)(=O)c1ccc(N)cc1)C(c1ccccc1)c1ccccc1.[Na] [PL-462, (1S,5S)-(1-{5-[(4-amino-benzenesulfonyl)-isobutyl-amino]-6-phosphonooxy-hexylcarbamoyl}-2,2-diphenyl-ethyl)-carbamic acid methyl ester sodium salt] |  |  |  |  | equivalent to slightly superior | None | -1.2 | 0.816 ± 0.295 (PL-100, detected) µg/hr*ml

The next lines start with results.

Row | Cmax [1] | Tmax [1] | AUC [1, 3] | logP ([2]; read-out: LogP) | delivery of PL-100 and PL-337 compared to non-aqueous formulations of PL-100 and PL-337 [1] | administered compound detected in the blood samples [1] | logP [2] | SMILES | AUC [1, 4]
3 | 498 ± 203 nM | 40 min | 0.675 ± 0.171 µg/hr*ml | 3.6 |  |  |  | COC(=O)N[C@H](C(=O)NCCCC[C@@H](CO)N(CC(C)C)S(=O)(=O)c1ccc(N)cc1)C(c1ccccc1)c1ccccc1 [PL-100, (1S,5S)-(1-{5-[(4-amino-benzenesulfonyl)-isobutyl-amino]-6-hydroxy-hexylcarbamoyl}-2,2-diphenyl-ethyl)-carbamic acid methyl ester] | 
4 |  |  |  | -1.2 |  |  |  | COC(=O)N[C@H](C(=O)NCCCC[C@@H](COP(=O)(O)O)N(CC(C)C)S(=O)(=O)c1ccc(N)cc1)C(c1ccccc1)c1ccccc1 [PL-461, (1S,5S)-(1-{5-[(4-amino-benzenesulfonyl)-isobutyl-amino]-6-phosphonooxy-hexylcarbamoyl}-2,2-diphenyl-ethyl)-carbamic acid methyl ester] | 
5 |  |  |  | -0.75 | equivalent to slightly superior | None |  | COC(=O)N[C@H](C(=O)NCCCC[C@@H](COP(=O)(O)O)N(CC(C)C)S(=O)(=O)c1ccc(N)c(F)c1)C(c1ccccc1)c1ccccc1 [PL-515, (1S,5S)-(1-{5-[(4-amino-3-fluoro-benzenesulfonyl)-isobutyl-amino]-6-phosphonooxy-hexylcarbamoyl}-2,2-diphenyl-ethyl)-carbamic acid methyl ester] | 1.075 ± 0.625 (PL-337, detected) µg/hr*ml
